In article PMC10526274, “Epithelial-Immune Cell Crosstalk Determines the Activation of Immune Cells In Vitro by the Human Cathelicidin LL-37 at Low Physiological Concentrations” (Biomolecules, 2023):

System: primary blood monocytes
Assay: Multiplex phosphoprotein signaling in monocyte lysates, monocytes alone + LL-37
Assay type: cell-based, human
Settings: 1 µM LL-37, 2 h, mean MFI normalized to β-tubulin
Method: Primary blood monocytes were isolated from PBMCs by plastic adhesion in the wells of a 24-well plate 24 h prior to the experiment. For that, 2 × 10^6 PBMC were seeded in each well in 2 mL of RPMI-1640 without supplements and kept for 1 h in a humidified CO2-incubator (5% CO2, 37 °C). Then, the adhered monocytes were thoroughly washed 3 times with the culture medium without supplements, and 600 µL of the complete RPMI-1640, supplemented with 10% Human AB serum, was added into each well. Then, 24 h later, the medium in the wells of a 24-well plate was replaced by a fresh medium with or without 1 µM of LL-37, and the permeable inserts with Caco-2 monolayers with TEER > 400 Ω × cm^2, containing 400 μL of the complete medium in their apical chamber, were immediately placed into the appropriate wells for 2 h. Then, 2 h later, the culture medium and the inserts were carefully removed, and the cells in each well were washed with PBS and lysed in 100 µL of MILLIPLEX MAP Lysis Buffer (cat. #43-040, Merck, Darmstadt, Germany), containing phosphatase inhibitors including 1 mM sodium orthovanadate (Na3VO4). To prevent protein degradation, a protease inhibitor cocktail (cat. #535140, Merck) was freshly added to the MILLIPLEX MAP Lysis Buffer. Cell lysate preparation was performed in accordance with the manufacturer’s instructions.
The phosphorylation of the following key cell signaling kinases and transcription factors was measured in cell lysates by using the MILLIPLEX multi-pathway magnetic bead 9-plex kit (#48-680MAG, Merck), containing phosphorylation state-specific antibodies: ERK/MAP kinase 1/2 (Thr185/Tyr187), Akt (Ser473), STAT3 (Ser727), JNK (Thr183/Tyr185), p70S6 kinase (Thr412), NF-κB (Ser536), STAT5A/B (Tyr694/699), CREB (Ser133), and p38 (Thr180/Tyr182). β-Tubulin MAPmate magnetic beads (#46-713MAG, Merck) were used as an assay normalization control to normalize the total protein level between the samples. A multiplex assay was carried out in accordance with the manufacturer’s instructions with overnight incubation of the samples with primary antibodies to phosphorylated signaling proteins on the MAGPIX system (Merck) using the xPONENT 4.2 software (Merck). The final analysis of the acquired fluorescence data was performed with the MILLIPLEX Analyst v5.1 software (Merck). Normalized MFI values were compared with an unpaired two-sample t-test using GraphPad Prism v.8.0.1 (GraphPad Software). The p-values ≤ 0.05 were considered significant.

## LL-37: the only human cathelicidin, host defense antimicrobial peptide of 37 a.a. residues, produced by solid-phase peptide synthesis
Control 0.03
  phosphorylated STAT3: 0.04 MFI
Control 96.21
  phosphorylated NF-kB: 54.12 MFI
Control 134.68
  phosphorylated STAT5: 66.15 MFI
Control 214.97
  phosphorylated JNK: 140.9 MFI
Control 279.26
  phosphorylated p70S6K: 462.14 MFI
Control 3026
  phosphorylated Akt: 2827 MFI
Control 5351
  phosphorylated ERK 1/2: 4054 MFI
Control 28314
  phosphorylated p38: 24565 MFI
Control 151618
  phosphorylated CREB: 112466 MFI
